Earlier results on nine compounds are cited in US6183992A, “Method for mass production of antimicrobial peptide” (Samyang Genex Corporation, priority 1997, dated 2001).

Ends that are not written are not given here.

For this data set the following is noted: Table 1, excerpted from Peptide Science, Vol 37, 105-122 (1995).

Take `CC[C@H](C)[C@H](N)C(=O)N[C@@H](CC(C)C)C(=O)N1CCC[C@H]1C(=O)N[C@@H](Cc1c[nH]c2ccccc12)C(=O)N[C@@H](CCCCN)C(=O)N[C@@H](Cc1c[nH]c2ccccc12)C(=O)N1CCC[C@H]1C(=O)N[C@@H](Cc1c[nH]c2ccccc12)C(=O)N[C@@H](Cc1c[nH]c2ccccc12)C(=O)N1CCC[C@H]1C(=O)N[C@@H](Cc1c[nH]c2ccccc12)C(=O)N[C@@H](CCCNC(=N)N)C(=O)N[C@@H](CCCNC(=N)N)C(N)=O` [Indolicidin]: the pI is reported as 12.51.

Regarding `CC[C@H](C)[C@H](NC(=O)CN)C(=O)NCC(=O)N[C@@H](C)C(=O)N[C@H](C(=O)N[C@@H](CC(C)C)C(=O)N[C@@H](CCCCN)C(=O)N[C@H](C(=O)N[C@@H](CC(C)C)C(=O)N[C@H](C(=O)N[C@H](C(=O)NCC(=O)N[C@@H](CC(C)C)C(=O)N1CCC[C@H]1C(=O)N[C@@H](C)C(=O)N[C@@H](CC(C)C)C(=O)N[C@H](C(=O)N[C@@H](CO)C(=O)N[C@@H](Cc1c[nH]c2ccccc12)C(=O)N[C@H](C(=O)N[C@@H](CCCCN)C(=O)N[C@@H](CCCNC(=N)N)C(=O)N[C@@H](CCCCN)C(=O)N[C@@H](CCCNC(=N)N)C(=O)N[C@@H](CCC(N)=O)C(=O)N[C@@H](CCC(N)=O)C(N)=O)[C@@H](C)CC)[C@@H](C)CC)[C@@H](C)O)[C@@H](C)O)C(C)C)C(C)C` [Melittin], the pI is reported as 12.53.

Turning to Apidaecin I, the pI is 12.21.

With Bombinin, the pI is recorded as 10.34.

In the case of Cercropin A [Ceropin A], the pI is 10.89.

Take GKPRPYSPRPTSHPRPIRV [Drosocin]: the pI is on record as 12.22.

HNP-I [HNP1]: the pI is recorded as 8.28.

With Magainin (MSI-344), the pI is listed as 11.41.

Turning to Tachyplesin I, the pI is 10.01.
